Measured values: US20240139167A1, “LYSOSOME-ASSOCIATED MEMBRANE PROTEIN TARGETING COMPOUNDS AND USES THEREOF” (HADASIT MEDICAL RESEARCH SERVICES AND DEVELOPMENT LTD., priority 2021, published 2024)

Tests used:
[1] = Safety assessment in wild type mice, 3 months; format: in vivo
Method: FIG. 10 includes a graph of the body weights of wild type C57B16J mice treated with Compound 1 for 3 months. Mice were injected twice a week with 150 μL of Compound 1 at 250 mg/kg in 5% DMSO, or an equal volume of 5% DMSO (V, vehicle) control. Injections were intravenous for the first month and then subcutaneously for the following 2 months;
FIG. 11 includes images of brain, liver, skeletal muscle, and heart tissue slices of wild type C57B16J mice treated for 3 months with Compound 1. The slices were stained by H&E staining in order to visualize lesions. No lesions were apparent in either treatment. Scale bars, 500 μm (brain), 100 μm (liver), 200 µm (muscle), 100 μm (heart).
The inventors have tested Compound 1 (FIG. 1A) for its capacity to correct the deficient motor phenotypes and short lifespan in the APBD mouse model Gbe^ys/ys. Compound 1 is one of 19 PG reducing HTS hits previously discovered by the inventors. It was selected by in silico ADMET (Absorption, Distribution, Metabolism, Excretion, and Toxicity) tests run on these hits to predict which of them should be safe and pharmacokinetically and pharmacodynamically preferred and is therefore worth further pursuit (FIG. 8, compound “A”). […] Following 1 h and 24 h treatments, mice were also examined for abnormal spontaneous behavior, such as immobility, excessive running, stereotyped movements, and abnormal posture (Irwin tests).

LAMP1 = target: T1, LAMP1 (Homo sapiens, UniProt P11279); experiment: Cellular thermal shift assay (CETSA); format: binding
T1 construct: endogenous in cells
T1 sequence (P11279 29-417): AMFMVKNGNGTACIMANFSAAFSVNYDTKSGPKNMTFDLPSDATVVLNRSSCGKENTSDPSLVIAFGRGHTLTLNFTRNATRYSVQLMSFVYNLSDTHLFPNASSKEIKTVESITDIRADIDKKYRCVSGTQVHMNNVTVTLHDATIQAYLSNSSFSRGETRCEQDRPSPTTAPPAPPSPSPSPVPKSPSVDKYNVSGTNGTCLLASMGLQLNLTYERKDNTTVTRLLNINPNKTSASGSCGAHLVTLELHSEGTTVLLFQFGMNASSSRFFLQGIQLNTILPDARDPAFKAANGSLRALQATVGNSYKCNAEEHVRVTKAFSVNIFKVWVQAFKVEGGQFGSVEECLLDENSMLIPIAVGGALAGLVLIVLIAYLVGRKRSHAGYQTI
Excerpt: FIGS. 5A-5E include images of experiments showing hetero-assembly forms around Compound 1 and not around endogenous molecules as shown by the liquid crystals formed in experiments 1-3 (5A); image of STRING network of targets at the interactome of Compound 1 (5B); cellular thermal shift assay (CETSA) of different targets of the Compound 1 hetero-assembly (5C); surface plasmon resonance sensograms of binding of Compound 1 to LAMP1 (5D); sensogram experiments consisting of association and dissociation at the indicated concentration ranges and pH values were then conducted.
The inventors have investigated the mechanism of action of 144DG11. To that end, the inventors first decided to determine its molecular target. Nematic protein organization technique (NPOT, Inoviem, Ltd.) was applied to homogenates of APBD patient fibroblasts. The NPOT analysis has discovered protein hetero assemblies uniquely generated around 144DG11 only when it was added to the cell homogenates (FIG. 5A). The next step in this analysis has identified the interactome of protein targets interacting with 144DG11 in APBD patients' fibroblasts. […] In the search for a putative binding site for Compound 1 in LAMP1, the inventors have analyzed the N- and C-terminal subdomains of its luminal domain (residues A29-R195 and S217-D378, respectively), which have a similar topology. […]

Compound: COCCN(Cc1sccc1C)C(=O)c1cc(C)nc(O)c1 [Compound 1]
- animals' weight gain over time ([1]; 3 months at 250 mg/kg in 5% DMSO): did not influence
- histopathological damage or lesions in brain, liver, skeletal muscle, and heart ([1]; after 3 months exposure): did not produce any histopathological damage or lesions
- increase in LAMP1 levels (LAMP1): 1.2 fold
- interaction with LAMP1 (not other protein targets; 6 of 8 NPOT targets tested) (LAMP1): directly interacts
